We go through seven molecules from patent US20260183405A1, “SMALL MOLECULE-DRUG-CONJUGATES CLEAVABLE IN A TUMOR MICROENVIRONMENT” (priority 2022, published 2026).

Structures are written as SMILES. Read-outs that look alike come from different tables or passages of the source. Starred links: 1 amine or outer side, 2 acyl side, 3 side chain; linkers in the order of their positions; H or OH if unused. Non-standard residues stand in square brackets, D forms with d. Residues, ends and D or L forms follow the SMILES beside them. Groups on a side chain read outwards from the residue. *: point of attachment. Camptothecin(7-Et) = CCc1c2c(nc3ccccc13)-c1cc3c(c(=O)n1C2)COC(=O)[C@@]3(CC)O*; EuK = O=C(O)CC[C@H](NC(=O)N[C@@H](CCCCN*)C(=O)O)C(=O)O; Deacetylacetazolamide = NS(=O)(=O)c1nnc(N*)s1; Suc = O=C(CCC(=O)[*:2])[*:1]; PEG3 = NCCOCCOCCOCCC(=O)O; CO = O=C([*:1])[*:2]

Test in all cases: Cytotoxicity in vitro in the presence and absence of elastase (MTT assay)
Common to all, as to format: cell-based
Background: Formazan colour is commonly taken as a measure of viable cells.

One assay deals with 786-O. The note with it: 786-O cells, 72 h incubation. The method, then: (§1) Cultivation of cells was performed according to standard procedures with the media recommended by the provider. The cells, in a total volume of 100 μL, were seeded in a 96-well plate with a white bottom (#3610). After a 24 h incubation period at 37° C. and 5% CO2, the medium was exchanged by adding 90 μL fresh medium. The treatment started by adding the test compound in 10 μL of culture medium to the cells in triplicates. Concentrations ranging from 10^−5 M to 10^−13 M were chosen. Two identically treated sets of samples were prepared. One set was treated with the test compound alone, whereas to the second set the compound and 10 nM elastase (NE) was added followed by a 72 h incubation period at 37° C. and 5% CO2. The proliferation was detected using the MTT assay (ATCC). At the end of the incubation period the MTT reagent was added to all samples for 4h. Lysis of the cells followed by addition of the detergent was done overnight. The formed dye was detected at 570 nm. The proliferation of untreated but otherwise identically handled cells was defined as the 100% value. The dose response curves allowed the determination of the respective IC50 values. […]

The next assay has as its system HT29. Conditions: HT29 cells, 72 h incubation. The method, then: as §1
The test system of a further assay is NCI-H292. Conditions: NCI-H292 cells, 72 h incubation. How it is done:
as §1

A further assay has as its system SUM149PT. Conditions: SUM149PT cells, 72 h incubation. The method, then: as §1
The mark [1] stands for this setting: compound alone, read-out: IC50 without neutrophil elastase.
[2] abbreviates: with 10 nM elastase (NE), read-out: IC50 with neutrophil elastase.

For orientation: IC50 means the point on the concentration scale where inhibition reaches its midpoint. Consider `CCc1c2c(nc3ccccc13)-c1cc3c(c(=O)n1C2)COC(=O)[C@@]3(CC)OC(=O)[C@@H](NC(=O)[C@@H]1CCCN1C(=O)[C@H](CC(=O)O)NC(=O)CCOCCOCCOCCNC(=O)[C@H](CCCCNC(=O)CCOCCOCCOCCNC(=O)NCCCC[C@H](NC(=O)N[C@@H](CCC(=O)O)C(=O)O)C(=O)O)NC(=O)CCOCCOCCOCCNC(=O)NCCCC[C@H](NC(=O)N[C@@H](CCC(=O)O)C(=O)O)C(=O)O)C(C)C` [Compound 7, heptasodium (4S)-4,11-diethyl-3,14-dioxo-3,4,12,14-tetrahydro-1H-pyrano[3′,4′:6,7]indolizino[1,2-b]quinolin-4-yl 1-[(2S)-15-{[N2,N6-bis(3S,7S)(1,3,7-tricarboxylato-5,13,26-trioxo-17,20,23-trioxa-4,6,12,14-tetraazahexacosan-26-yl)-L-lysyl]amino}-2-(carboxylatomethyl)-4-oxo-7,10,13-trioxa-3-azapentadecanan-1-oyl]-L-prolyl-L-valinate] ({EuK-CO-PEG3}-K([PEG3-CO-EuK])[PEG3]DPV-{Camptothecin(7-Et)}), for which the IC50 in the assay with 786-O (setting [1]) was 100 to 999 nM; with 786-O (setting [2]), 1 to 9.9 nM; in the assay on HT29 (setting [1]), above 1000 nM; in the assay with HT29 (setting [2]) it was 10 to 99 nM; with NCI-H292 (setting [1]) it was 100 to 999 nM; in the assay with NCI-H292 (setting [2]), 1 to 9.9 nM. Moreover, the concentration for half-maximal inhibition (IC50) in the assay with SUM149PT (setting [1]) lay within 100 to 999 nM; in the assay on SUM149PT (setting [2]) it was 1 to 9.9 nM.

As to `CCc1c2c(nc3ccccc13)-c1cc3c(c(=O)n1C2)COC(=O)[C@@]3(CC)OC(=O)[C@@H](NC(=O)[C@@H]1CCCN1C(=O)[C@H](CC(=O)O)NC(=O)CCOCCOCCOCCNC(=O)[C@H](CCCCNC(=O)CCOCCOCCOCCNC(=O)CCC(=O)Nc1nnc(S(N)(=O)=O)s1)NC(=O)CCOCCOCCOCCNC(=O)CCC(=O)Nc1nnc(S(N)(=O)=O)s1)C(C)C` [Compound 8, sodium (4S)-4,11-diethyl-3,14-dioxo-3,4,12,14-tetrahydro-1H-pyrano[3′,4′:6,7]indolizino[1,2-b]quinolin-4-yl 1-[(2S)-15-[(N2,N6-bis{14,17-dioxo-17-[(5-sulfamoyl-1,3,4-thiadiazol-2-yl)amino]-4,7,10-trioxa-13-azaheptadecanan-1-oyl}-L-lysyl)amino]-2-(carboxylatomethyl)-4-oxo-7,10,13-trioxa-3-azapentadecanan-1-oyl]-L-prolyl-L-valinate] ({Deacetylacetazolamide-Suc-PEG3}-K([PEG3-Suc-Deacetylacetazolamide])[PEG3]DPV-{Camptothecin(7-Et)}), the half-maximal inhibitory concentration (IC50) in the assay with 786-O (setting [1]) was above 1000 nM; in the assay with 786-O (setting [2]), 10 to 99 nM; in the assay on HT29 (setting [1]), above 1000 nM; in the assay with HT29 (setting [2]), 10 to 99 nM; in the assay with NCI-H292 (setting [1]), above 1000 nM; in the assay on NCI-H292 (setting [2]) it was 10 to 99 nM. The IC50 was above 1000 nM in the assay with SUM149PT (setting [1]) and 10 to 99 nM with SUM149PT (setting [2]).

Take `CC[C@@]1(OC(=O)[C@@H](NC(=O)[C@@H]2CCCN2C(=O)[C@H](CC(=O)O)NC(=O)CCOCCOCCOCCNC(=O)NCCCC[C@H](NC(=O)N[C@@H](CCC(=O)O)C(=O)O)C(=O)O)C(C)C)C(=O)OCc2c1cc1n(c2=O)Cc2c-1nc1cc(F)c(C)c3c1c2[C@@H](N)CC3` [Compound 11, tetrasodium (1S,9S)-1-amino-9-ethyl-5-fluoro-4-methyl-10,13-dioxo-2,3,9,10,13,15-hexahydro-1H,12H-benzo[de]pyrano[3′,4′:6,7]indolizino[1,2-b]quinolin-9-yl 1-[(2S,23S,27S)-23,27,29-tricarboxylato-2-(carboxylatomethyl)-4,17,25-trioxo-7,10,13-trioxa-3,16,18,24,26-pentaazanonacosanan-1-oyl]-L-prolyl-L-valinate]: the IC50 in the assay on 786-O (setting [1]) is 100 to 999 nM; in the assay with 786-O (setting [2]), 1 to 9.9 nM; in the assay with HT29 (setting [1]), above 1000 nM; with HT29 (setting [2]), 10 to 99 nM; with NCI-H292 (setting [1]), 100 to 999 nM; in the assay with NCI-H292 (setting [2]), 1 to 9.9 nM. For the same molecule, the IC50 is 100 to 999 nM in the assay with SUM149PT (setting [1]) and 1 to 9.9 nM in the assay with SUM149PT (setting [2]).

`CC[C@@]1(OC(=O)[C@@H](NC(=O)[C@@H]2CCCN2C(=O)[C@H](CC(=O)O)NC(=O)CCOCCOCCOCCNC(=O)CCC(=O)Nc2nnc(S(N)(=O)=O)s2)C(C)C)C(=O)OCc2c1cc1n(c2=O)Cc2c-1nc1cc(F)c(C)c3c1c2[C@@H](N)CC3` [Compound 12, sodium (1S,9S)-1-amino-9-ethyl-5-fluoro-4-methyl-10,13-dioxo-2,3,9,10,13,15-hexahydro-1H,12H-benzo[de]pyrano[3′,4′:6,7]indolizino[1,2-b]quinolin-9-yl 1-{(2S)-2-(carboxylatomethyl)-4,17,20-trioxo-20-[(5-sulfamoyl-1,3,4-thiadiazol-2-yl)amino]-7,10,13-trioxa-3,16-diazaicosanan-1-oyl}-L-prolyl-L-valinate]: the half-inhibitory concentration (IC50) in the assay on 786-O (setting [1]) is 100 to 999 nM; with 786-O (setting [2]), 1 to 9.9 nM; in the assay on HT29 (setting [1]) it was above 1000 nM; with HT29 (setting [2]), 10 to 99 nM; in the assay on NCI-H292 (setting [1]), 100 to 999 nM; in the assay with NCI-H292 (setting [2]), 1 to 9.9 nM. For the same molecule, the values for the half-inhibitory concentration (IC50) in the assay on SUM149PT (setting [1]) and in the assay with SUM149PT (setting [2]) were 100 to 999 nM and 1 to 9.9 nM, respectively.

For the molecule `CCCNC(=O)Nc1cccc(S(=O)(=O)Nc2cccc([C@@H](CC(=O)O)NC(=O)Nc3ccc(NC(=O)NCCOCCOCCOCCC(=O)N[C@@H](CC(N)=O)C(=O)N4CCC[C@H]4C(=O)N[C@H](C(=O)NCCCN(C(=O)CO)[C@@H](c4cc(-c5cc(F)ccc5F)cn4Cc4ccccc4)C(C)(C)C)C(C)C)cc3)c2)c1` [Compound 16, N^2-(14-{4-[({(1R)-2-carboxy-1-[3-({3-[(propylcarbamoyl)amino]benzene-1-sulfonyl}amino)phenyl]ethyl}carbamoyl)amino]anilino}-14-oxo-4,7,10-trioxa-13-azatetradecanan-1-oyl}-L-asparaginyl-L-prolyl-N-{3-[{(1R)-1-[1-benzyl-4-(2,5-difluorophenyl)-1H-pyrrol-2-yl]-2,2-dimethylpropyl}(hydroxyacetyl)amino]propyl}-L-valinamide], the IC50 with 786-O (setting [1]) was above 1000 nM; in the assay with 786-O (setting [2]), 1 to 9.9 nM; in the assay with HT29 (setting [1]) it was above 1000 nM; in the assay on HT29 (setting [2]), 1 to 9.9 nM; in the assay with NCI-H292 (setting [1]) it was 100 to 999 nM; in the assay with NCI-H292 (setting [2]), 1 to 9.9 nM. Moreover, the IC50 in the assay with SUM149PT (setting [1]) lay within 100 to 999 nM; in the assay with SUM149PT (setting [2]), 0.1 to 1 nM.

For the molecule `CCCNC(=O)Nc1cccc(S(=O)(=O)Nc2cccc([C@@H](CC(=O)O)NC(=O)Nc3ccc(NC(=O)NCCOCCOCCOCCC(=O)N[C@@H](CC(N)=O)C(=O)N4CCC[C@H]4C(=O)N[C@H](C(=O)N[C@@H](CCN(C(=O)CO)[C@@H](c4cc(-c5cc(F)ccc5F)cn4Cc4ccccc4)C(C)(C)C)C(=O)NC)C(C)C)cc3)c2)c1` [Compound 19, sodium N^2-(14-{4-[({(1R)-2-carboxylato-1-[3-({3-[(propylcarbamoyl)amino]benzene-1-sulfonyl}amino)phenyl]ethyl}carbamoyl)amino]anilino}-14-oxo-4,7,10-trioxa-13-azatetradecanan-1-oyl)-L-asparaginyl-L-prolyl-N-[(2S)-4-[{(1R)-1-[1-benzyl-4-(2,5-difluorophenyl)-1H-pyrrol-2-yl]-2,2-dimethylpropyl}(hydroxyacetyl)amino]-1-(methylamino)-1-oxobutan-2-yl]-L-valinamide], the IC50 was above 1000 nM in the assay with 786-O (setting [1]); 1 to 9.9 nM in the assay on 786-O (setting [2]); above 1000 nM in the assay with HT29 (setting [1]); 1 to 9.9 nM with HT29 (setting [2]); above 1000 nM with NCI-H292 (setting [1]); 0.1 to 1 nM with NCI-H292 (setting [2]). Moreover, the 50% inhibitory concentration (IC50) with SUM149PT (setting [1]) was above 1000 nM; with SUM149PT (setting [2]), 0.1 to 1 nM.

`CCc1c2c(nc3ccccc13)-c1cc3c(c(=O)n1C2)COC(=O)[C@@]3(CC)OC(=O)[C@@H](NC(=O)[C@@H]1CCCN1C(=O)[C@H](CC(=O)O)NC(=O)CCOCCOCCOCCNC(=O)NC[C@H](NC(=O)CCCCNc1cc(C)ccn1)C(=O)N[C@@H](CC(=O)O)c1cc(Cl)cc(Cl)c1)C(C)C` [Compound 29, disodium (4S)-4,11-diethyl-3,14-dioxo-3,4,12,14-tetrahydro-1H-pyrano[3′,4′:6,7]indolizino[1,2-b]quinolin-4-yl 1-{(2S,20S)-20-{[(1S)-2-carboxylato-1-(3,5-dichlorophenyl)ethyl]carbamoyl}-2-(carboxylatomethyl)-26-[(4-methylpyridin-2-yl)amino]-4,17,22-trioxo-7,10,13-trioxa-3,16,18,21-tetraazahexacosanan-1-oyl}-L-prolyl-L-valinate]: the IC50 with 786-O (setting [1]) was 100 to 999 nM; in the assay on 786-O (setting [2]), 1 to 9.9 nM; with HT29 (setting [1]), above 1000 nM; in the assay with HT29 (setting [2]), 10 to 99 nM; in the assay on NCI-H292 (setting [1]), 100 to 999 nM; in the assay on NCI-H292 (setting [2]), 1 to 9.9 nM. For the same molecule, the 50% inhibitory concentration (IC50) in the assay on SUM149PT (setting [1]) lay in the range of 100 to 999 nM; in the assay on SUM149PT (setting [2]) it was 1 to 9.9 nM.
